Laboratory results: ChEMBL document CHEMBL3217685, “Quantitative affinity-based chemical proteomics of TrkA inhibitors” (Medchemcomm, 2012)

How the values were obtained:
[1] = target: T1, High affinity nerve growth factor receptor (Homo sapiens, UniProt P04629); test: Inhibition of TrkA (unknown origin)
[2] = target: T1, High affinity nerve growth factor receptor; test: Inhibition of TrkA (unknown origin) by cell-based assay
[3] = target: T2, BDNF/NT-3 growth factors receptor (Homo sapiens, UniProt Q16620); test: Inhibition of TrkB (unknown origin)
[4] = target: T2, BDNF/NT-3 growth factors receptor; test: Inhibition of TrkB (unknown origin) by cell-based assay
[5] = Apparent permeability from apical side to basolateral side of MDCK cells; format: ADME, cell-based, Canis lupus familiaris; conditions: dog
[6] = Apparent permeability from basolateral side to apical side of MDCK cells; format: ADME, cell-based, Canis lupus familiaris; conditions: dog

T1 sequence (P04629 whole entry): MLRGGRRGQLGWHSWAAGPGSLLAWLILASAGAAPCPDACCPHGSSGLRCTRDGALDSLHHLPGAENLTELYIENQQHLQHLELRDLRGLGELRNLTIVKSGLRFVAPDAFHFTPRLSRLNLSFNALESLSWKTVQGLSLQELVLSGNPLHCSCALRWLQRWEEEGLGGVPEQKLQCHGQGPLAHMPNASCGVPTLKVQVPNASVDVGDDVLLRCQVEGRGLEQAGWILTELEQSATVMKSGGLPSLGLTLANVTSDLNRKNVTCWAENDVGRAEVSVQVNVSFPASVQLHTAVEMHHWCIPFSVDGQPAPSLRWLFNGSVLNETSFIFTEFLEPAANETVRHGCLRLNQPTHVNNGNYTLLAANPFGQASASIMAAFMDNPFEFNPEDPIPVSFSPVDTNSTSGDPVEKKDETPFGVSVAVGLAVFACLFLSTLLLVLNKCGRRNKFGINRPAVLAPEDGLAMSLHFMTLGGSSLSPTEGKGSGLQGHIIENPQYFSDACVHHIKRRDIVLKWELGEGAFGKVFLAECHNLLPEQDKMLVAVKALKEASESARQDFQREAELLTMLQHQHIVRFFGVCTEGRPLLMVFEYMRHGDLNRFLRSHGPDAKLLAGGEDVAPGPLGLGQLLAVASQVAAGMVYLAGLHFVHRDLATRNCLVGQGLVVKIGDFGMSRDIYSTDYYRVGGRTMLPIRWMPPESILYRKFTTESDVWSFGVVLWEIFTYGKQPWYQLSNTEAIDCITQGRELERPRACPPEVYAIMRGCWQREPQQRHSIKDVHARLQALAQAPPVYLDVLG
T2 sequence (Q16620 whole entry): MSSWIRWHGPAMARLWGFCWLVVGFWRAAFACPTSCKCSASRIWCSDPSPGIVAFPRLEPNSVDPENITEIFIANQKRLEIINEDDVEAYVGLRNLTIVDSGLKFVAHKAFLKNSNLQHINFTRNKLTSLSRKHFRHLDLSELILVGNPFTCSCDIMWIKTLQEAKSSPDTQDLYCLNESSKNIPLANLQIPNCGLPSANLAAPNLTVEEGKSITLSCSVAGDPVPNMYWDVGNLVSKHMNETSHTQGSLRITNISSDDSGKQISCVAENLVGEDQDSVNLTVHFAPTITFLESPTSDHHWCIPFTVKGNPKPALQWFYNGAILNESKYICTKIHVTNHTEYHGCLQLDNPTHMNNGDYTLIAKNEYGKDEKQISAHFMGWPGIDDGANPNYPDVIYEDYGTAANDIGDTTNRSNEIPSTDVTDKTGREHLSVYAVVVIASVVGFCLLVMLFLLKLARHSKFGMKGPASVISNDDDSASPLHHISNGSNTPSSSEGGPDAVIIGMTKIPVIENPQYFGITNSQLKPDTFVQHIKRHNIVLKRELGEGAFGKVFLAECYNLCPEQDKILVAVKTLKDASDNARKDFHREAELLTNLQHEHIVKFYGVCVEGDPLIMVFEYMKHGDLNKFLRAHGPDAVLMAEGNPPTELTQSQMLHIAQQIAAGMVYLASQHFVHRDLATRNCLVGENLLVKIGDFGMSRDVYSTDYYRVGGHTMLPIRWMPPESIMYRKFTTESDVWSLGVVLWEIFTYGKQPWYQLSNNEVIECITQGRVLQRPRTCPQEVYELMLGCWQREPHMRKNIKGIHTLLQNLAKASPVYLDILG

- IC50 [1]: 51 nM
- IC50 [2]: 1710 nM
- IC50 [3]: 11 nM
- IC50 [4]: 1300 nM
- Papp A→B [5]: 1.1 ×10⁻⁶ cm/s
- Papp B→A [6]: < 5 ×10⁻⁶ cm/s
SMILES: CC(C)[C@H](CO)Nc1nc(Nc2ccc(C(=O)O)c(Cl)c2)c2ncn(C(C)C)c2n1 [PURVALANOL B]
